Source: patent US20230391756A1, “NEW COMPOUND” (JANSSEN PHARMACEUTICA NV, priority 2020, published 2023)

How the values were obtained:
[1] = system: NLRP3 inflammasome pathway (IL-1β); experiment: PBMC assay: IL-1β release after LPS stimulation; type: cell-based; settings: human PBMCs, 100 ng/ml LPS for 6 hrs, MSD
Procedure: The activity of a compound according to the present invention can be assessed by in vitro methods.
(§1) Peripheral venous blood was collected from healthy individuals and human peripheral blood mononuclear cells (PBMCs) were isolated from blood by Ficoll-Histopaque (Sigma-Aldrich, A0561) density gradient centrifugation. After isolation, PBMCs were stored in liquid nitrogen for later use. Upon thawing, PBMC cell viability was determined in growth medium (RPMI media supplemented with 10% fetal bovine serum, 1% Pen-Strep and 1% L-glutamine). […] PBMCs were added at a density of 7.5×10^4 cells per well and incubated for 30 min in a 5% CO2 incubator at 37° C. LPS stimulation was performed by addition of 100 ng/ml LPS (final concentration, Invivogen, tlrl-smlps) for 6 hrs followed by collection of cellular supernatant and the analysis of IL-1β (μM) and TNF cytokines levels (μM) via MSD technology according to manufacturers' guidelines (MSD, K151A0H).

[2] = system: TNF; experiment: PBMC assay: TNF cytokine level after LPS stimulation; type: cell-based; settings: human PBMCs, 100 ng/ml LPS for 6 hrs, MSD, read-out: TNFα EC50
Procedure: as §1

| Compound | IC50 [1] [µM] | EC50 [2] [µM] |
| --- | --- | --- |
| Cc1nnc2n1C[C@H](NC(=O)Cc1nn(C(C)C)c3cc(C(F)(F)F)ccc3c1=O)CC2 (single isomer, unassigned) [F-12] | > 20 | > 20 |
| Cc1nnc2n1C[C@@H](NC(=O)Cc1nn(C(C)C)c3cc(C(F)(F)F)ccc3c1=O)CC2 (single isomer, unassigned) [F-13] | 2.7 | > 20 |
| CCN1CC[C@@H](C)[C@@H](NC(=O)Cc2nn(C(C)C)c3cc(C(F)(F)F)ccc3c2=O)C1 (single isomer, unassigned) [F-88] | > 20 | > 20 |
| CCN1CC[C@H](C)[C@H](NC(=O)Cc2nn(C(C)C)c3cc(C(F)(F)F)ccc3c2=O)C1 (single isomer, unassigned) [F-103] | 4.97 | > 20 |
| CC(C)n1nc(CC(=O)N[C@H]2C[C@@](C)(O)C2)c(=O)c2ccc(Br)cc21 [F-3] | 0.123 | > 20 |
| CC(C)n1nc(CC(=O)Nc2ccc3nncn3c2)c(=O)c2ccc(Br)cc21 [F-4] | 0.071 | 9.56 |
| CCn1nc(CC(=O)Nc2ccncn2)c(=O)c2ccc(Br)cc21 [F-7] | 0.45 | > 20 |
| CCn1nc(CC(=O)Nc2ccncn2)c(=O)c2ccc(C3CC3)cc21 [F-8] | 0.66 | 12.9 |
| CC(C)n1nc(CC(=O)NC2CC(C(C)(C)O)C2)c(=O)c2ccc(C(F)(F)F)cc21 (stereo not drawn) [F-9] | 10.2 | > 20 |
| Cc1nnc2n1CC(NC(=O)Cc1nn(C(C)C)c3cc(C(F)(F)F)ccc3c1=O)CC2 (stereo not drawn) [F-11] | 4.02 | > 20 |
| CC(C)n1nc(CC(=O)Nc2cc(C(F)(F)F)ncn2)c(=O)c2ccc(C(F)(F)F)cc21 [F-16] | 6.73 | > 20 |
| CCn1nc(CC(=O)N[C@H]2C[C@@](C)(OC(=O)Cc3nn(CC)c4cc(Br)ccc4c3=O)C2)c(=O)c2ccc(Br)cc21 [F-23] | > 10 | > 10 |
| CC(C)n1nc(CC(=O)Nc2ccc3nccn3c2)c(=O)c2ccc(C(F)(F)F)cc21 [F-35] | 0.79 | 19.9 |
| CC(C)n1nc(CC(=O)Nc2ccn3ncnc3c2)c(=O)c2ccc(C(F)(F)F)cc21 [F-37] | 1.65 | > 20 |
| CC(C)n1nc(CC(=O)Nc2ccn3ccnc3c2)c(=O)c2ccc(C(F)(F)F)cc21 [F-38] | 1.75 | > 20 |
| CC(C)n1nc(CC(=O)Nc2ccc3cnnn3c2)c(=O)c2ccc(C(F)(F)F)cc21 [F-40] | 2.26 | 19.2 |
| CC(C)n1nc(CC(=O)Nc2cc3c(cn2)ncn3C)c(=O)c2ccc(C(F)(F)F)cc21 [F-44] | 4.91 | > 20 |
| CC(C)n1nc(CC(=O)Nc2ccc(=O)n(C)c2)c(=O)c2ccc(C(C)(F)F)cc21 [F-52] | 0.84 | 16.1 |
| CC(C)n1nc(CC(=O)Nc2ccc(=O)n(C)n2)c(=O)c2ccc(C(C)(F)F)cc21 [F-53] | 0.71 | 9.74 |
| CC(C)n1nc(CC(=O)Nc2ccc3ncn(C)c3n2)c(=O)c2ccc(C(F)(F)F)cc21 [F-54] | 0.685 | > 20 |
| O=C(Cc1nn(C2CC2)c2cc(C3CC3)ccc2c1=O)Nc1ccc2nccn2n1 [F-55] | 0.62 | > 20 |
| CCn1nc(CC(=O)Nc2ccc3nncn3n2)c(=O)c2ccc(C(F)(F)F)cc21 [F-56] | 0.53 | 18.5 |
| O=C(Cc1nn(C2CC2)c2cc(C3CC3)ccc2c1=O)Nc1ccc2nncn2c1 [F-59] | 0.37 | > 20 |
| O=C(Cc1nn(C2CC2)c2cc(C(F)(F)F)ccc2c1=O)Nc1ccc2nncn2c1 [F-63] | 0.27 | > 20 |

| Compound | IC50 [1] [µM] | EC50 [2] [µM] |
| --- | --- | --- |
| CCn1nc(CC(=O)Nc2ccc3nccn3n2)c(=O)c2ccc(C(C)(F)F)cc21 [F-65] | 0.24 | 8.36 |
| CCn1nc(CC(=O)Nc2ccc3nncn3c2)c(=O)c2ccc(C(C)C)cc21 [F-69] | 0.166 | 17.4 |
| CC(F)(F)c1ccc2c(=O)c(CC(=O)Nc3ccc4nncn4n3)nn(C3CC3)c2c1 [F-72] | 0.096 | 6.23 |
| CCn1nc(CC(=O)Nc2ccc3nncn3n2)c(=O)c2ccc(Br)cc21 [F-73] | 0.06 | > 20 |
| CC(C)n1nc(CC(=O)Nc2ccncn2)c(=O)c2ccc(C3CC3)cc21 [F-79, 2-(7-cyclopropyl-1-isopropyl-4-oxo-1,4-dihydrocinnolin-3-yl)-N-(pyrimidin-4-yl)acetamide] | – | 16.6 |
| CC(C)n1nc(CC(=O)N[C@H]2C[C@@](C)(O)C2)c(=O)c2ccc(C3CC3)cc21 [F-80] | 1.21 | > 20 |
| CC(C)n1nc(CC(=O)Nc2ccc3nncn3c2)c(=O)c2ccc(C3CC3)cc21 [F-81] | 0.166 | 7.11 |
| CCn1nc(CC(=O)Nc2ccc3nncn3c2)c(=O)c2ccc(C3CC3)cc21 [F-82] | 0.18 | > 20 |
| CCn1nc(CC(=O)N[C@H]2C[C@@](C)(O)C2)c(=O)c2ccc(C3CC3)cc21 [F-83] | 1.15 | > 20 |
| CC(C)n1nc(CC(=O)Nc2ccc(C(F)(F)F)nn2)c(=O)c2ccc(C(F)(F)F)cc21 [F-84, 2-(1-isopropyl-4-oxo-7-(trifluoromethyl)-1,4-dihydrocinnolin-3-yl)-N-(6-(trifluoromethyl)pyridazine-3-yl)acetamide] | > 20 | > 20 |
| CC(C)n1nc(CC(=O)Nc2ccc(C(F)F)nn2)c(=O)c2ccc(C(F)(F)F)cc21 [F-87] | 13.4 | > 20 |
| CC(C)n1nc(CC(=O)Nc2nc3ccc(Cl)cc3n2C)c(=O)c2ccc(C(F)(F)F)cc21 [F-89] | > 20 | > 20 |
| CC(C)n1nc(CC(=O)Nc2nc3cc(Br)ccc3n2C)c(=O)c2ccc(C(F)(F)F)cc21 [F-90] | > 20 | > 20 |
| CC(C)n1nc(CC(=O)Nc2nc3cc(Cl)ccc3o2)c(=O)c2ccc(C(F)(F)F)cc21 [F-102] | 6.03 | > 20 |
| CCS(=O)(=O)c1ccc2oc(NC(=O)Cc3nn(C(C)C)c4cc(C(F)(F)F)ccc4c3=O)nc2c1 [F-105] | 2.4 | > 20 |
| O=C(Cc1nn(C2CC2)c2cc(C3CC3)ccc2c1=O)Nc1cn2cnnc2cn1 [F-109] | 0.99 | > 20 |
| CC(C)n1nc(CC(=O)Nc2cn3cnnc3cn2)c(=O)c2ccc(C(F)(F)F)cc21 [F-112] | 0.53 | > 20 |
| CC(C)n1nc(CC(=O)Nc2cn3cc(Br)ncc3n2)c(=O)c2ccc(C(F)(F)F)cc21 [F-116, N-(6-bromoimidazo[1,2-a]pyrazin-2-yl)-2-(1-isopropyl-4-oxo-7-(trifluoromethyl)-1,4-dihydrocinnolin-3-yl)acetamide] | 3.8 | > 20 |
| CC(C)n1nc(CC(=O)Nc2nc3c(Cl)cccn3n2)c(=O)c2ccc(C(F)(F)F)cc21 [F-117] | 0.835 | > 20 |
| CC(C)n1nc(CC(=O)Nc2nc3ccc(Br)nn3n2)c(=O)c2ccc(C(F)(F)F)cc21 [F-118] | 1.61 | > 10 |
| COc1ccc2nc(NC(=O)Cc3nn(C(C)C)c4cc(C(F)(F)F)ccc4c3=O)nn2c1 [F-119] | 2.18 | > 20 |
| CC(C)n1nc(CC(=O)Nc2nc3nccc(C4CC4)n3n2)c(=O)c2ccc(C(F)(F)F)cc21 [F-120] | 11.6 | > 20 |
| CC(C)n1nc(CC(=O)Nc2nc3ccc(C(F)(F)F)cn3n2)c(=O)c2ccc(C(F)(F)F)cc21 [F-121] | 6.87 | > 20 |
